Assay: in vitro
Details: human, hela cells, % viability

Compound	viability at 28.5 h, 10 µM
CNC(=O)C1(Cc2ccccc2-c2cccc(F)c2)CCN(C(=O)Cc2ccccc2)CC1 [CBK285692]	115%
CCCn1cnc2cc(NC(=O)C3CCN(S(=O)(=O)c4ccc(F)cc4)C3)ccc21 (stereo not shown) [CBK285704]	85.8%
Cc1nnnn1-c1ccc(CC(=O)N2CCc3sccc3C2c2ccco2)cc1 (stereo not shown) [CBK285705]	88.2%
O=C(c1ccc(N2CCCC2)cc1)N1CCc2sccc2C1c1ccco1 (stereo not shown) [CBK285707]	102%
Cc1ccccc1-c1ccccc1CC1(C(=O)N(C)C)CCN(C(=O)CC(C)C)CC1 [CBK285714]	93.6%
Cc1ccccc1-c1ccccc1CC1(C(=O)N(C)C)CCN(C(=O)C2CCCCC2)CC1 [CBK285718]	98.2%
COc1ccccc1CN1CCC(Cc2ccccc2-c2ccccc2)(C(N)=O)CC1 [CBK285719]	101%
Cc1ccccc1-c1ccccc1CC1(C(N)=O)CCN(C(=O)CC2CCCCC2)CC1 [CBK285723]	103%
Cc1ccccc1-c1ccccc1CC1(C(N)=O)CCN(C(=O)c2cccc(F)c2)CC1 [CBK285726]	94.2%
Cc1ccc(CC(=O)N2CCC(Cc3ccccc3-c3ccccc3C)(C(N)=O)CC2)cc1 [CBK285727]	98.2%
Cc1cccc(CC(=O)N2CCC(Cc3ccccc3-c3ccccc3C)(C(N)=O)CC2)c1 [CBK285728]	93.4%
COc1cccc(CC(=O)N2CCC(Cc3ccccc3-c3ccccc3)(C(N)=O)CC2)c1 [CBK285730]	96.7%
Cc1ccccc1-c1ccccc1CC1(C(=O)N(C)C)CCN(C(=O)C2CC=CCC2)CC1 (stereo not shown) [CBK285733]	97.2%
CC1CC(=O)N(c2cccc(C(=O)Nc3cccc(-c4cccc(F)c4)c3)c2)C1=O (stereo not shown) [CBK285734]	103%
COc1ccccc1C(=O)N1CCC(Cc2ccccc2-c2ccccc2)(C(N)=O)CC1 [CBK285739]	96.4%
Cc1ccc(CC(=O)N2CCC(Cc3ccccc3-c3ccccc3)(C(N)=O)CC2)cc1 [CBK285740]	110%

Compound	viability at 28.5 h, 10 µM
COc1ccccc1C(=O)N1CCC(Cc2cccc(-c3cccs3)c2)(C(N)=O)CC1 [CBK285742]	99.8%
COc1ccccc1CC(=O)N1CCC(Cc2cccc(-c3cccs3)c2)(C(N)=O)CC1 [CBK285743]	93.3%
COc1ccc(CC(=O)N2CCC(Cc3cccc(-c4cccs4)c3)(C(N)=O)CC2)cc1 [CBK285744]	93.2%
COc1ccc(C(NC(=O)c2ccc(Cn3cncn3)cc2)c2ccccc2)cc1 (stereo not shown) [CBK285749]	106%
CC(C)NC(=O)C1(Cc2ccc(-c3ccccc3F)cc2)CCN(C(=O)C(C)C)CC1 [CBK285754]	102%
CNC(=O)C1(Cc2ccc(-c3cccc(C)c3)cc2)CCN(C(=O)C(C)(C)C)CC1 [CBK285755]	98.6%
Cc1cccc(-c2ccc(CC3(C(=O)NC(C)C)CCN(C(=O)C(C)C)CC3)cc2)c1 [CBK285756]	99.8%
COCC(=O)N1CCC(Cc2ccc(-c3cccc(C)c3)cc2)(C(=O)NC(C)C)CC1 [CBK285759]	93.6%
CCCC(=O)N1CCC(Cc2ccc(-c3cccc(C)c3)cc2)(C(=O)NC(C)C)CC1 [CBK285760]	93.9%
CNC(=O)C1(Cc2ccc(-c3ccccc3)cc2)CCN(C(=O)c2ccccc2)CC1 [CBK285761]	96.5%
CNC(=O)C1(Cc2ccc(-c3ccccc3)cc2)CCN(C(=O)C2CCCCC2)CC1 [CBK285762]	113%
CNC(=O)C1(Cc2ccc(-c3ccccc3)cc2)CCN(C(=O)c2ccccc2OC)CC1 [CBK285767]	85.9%
CNC(=O)C1(Cc2ccc(-c3ccccc3)cc2)CCN(C(=O)Cc2ccc(C)cc2)CC1 [CBK285769]	90.4%
NC(=O)C1(Cc2ccc(-c3ccccc3)cc2)CCN(C(=O)CCc2ccccc2)CC1 [CBK285772]	102%
NC(=O)C1(Cc2ccc(-c3ccccc3)cc2)CCN(C(=O)COc2ccccc2)CC1 [CBK285773]	95.9%
